Measured values published in PubChem BioAssay (NCI).
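A five-concentration, 48-hour dose response in 96-well plates underlies each endpoint, interpolated linearly between surrounding concentrations. The concentration for 50% growth inhibition is given as GI50. TGI marks complete inhibition of growth.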

Legend:
Experiment in all cases: growth of human tumour cells (NCI), 48 h
A498 renal = system: A498 renal
A549 NSCLC = system: A549 NSCLC
COLO 205 colon = system: COLO 205 colon
HOP-92 NSCLC = system: HOP-92 NSCLC
OVCAR-5 ovarian = system: OVCAR-5 ovarian
SNB-19 CNS = system: SNB-19 CNS
SW-620 colon = system: SW-620 colon
TK-10 renal = system: TK-10 renal
UACC-257 melanoma = system: UACC-257 melanoma
SK-MEL-2 melanoma = system: SK-MEL-2 melanoma

SMILES | GI50 (A498 renal) | TGI (A498 renal) | GI50 (A549 NSCLC) | TGI (A549 NSCLC) | GI50 (COLO 205 colon) | TGI (COLO 205 colon) | GI50 (HOP-92 NSCLC) | TGI (HOP-92 NSCLC) | GI50 (OVCAR-5 ovarian) | TGI (OVCAR-5 ovarian) | GI50 (SNB-19 CNS) | TGI (SNB-19 CNS) | GI50 (SW-620 colon) | TGI (SW-620 colon) | GI50 (TK-10 renal) | TGI (TK-10 renal) | GI50 (UACC-257 melanoma) | TGI (UACC-257 melanoma) | GI50 (SK-MEL-2 melanoma) | TGI (SK-MEL-2 melanoma)
COc1cc(Nc2nc(N[C@H]3CCCC[C@@H]3N)nc3cc[nH]c(=O)c23)cc(OC)c1 | 1.01 µM | 10.1 µM | 2.57 µM | 16.1 µM | 1.04 µM | 2.49 µM | 1.06 µM | 9.13 µM | 1.11 µM | 14.6 µM | 3.01 µM | 16.7 µM | 1.16 µM | 2.97 µM | 1.84 µM | 19.3 µM | 1.55 µM | 3.33 µM |  | 
CO/N=C(\C)c1ccc(Nc2cc(-c3ccccc3)nc3c(O)cccc23)cc1 | 21.4 µM | 41.6 µM | 12.8 µM | 28.9 µM | 17.2 µM | 34.5 µM | 17.5 µM | 33.7 µM | 18.7 µM | 33.4 µM |  |  | 13.6 µM | 40 µM |  |  | 15.9 µM | 32.3 µM | 28 µM | > 100 µM
CC(=O)Oc1ccc(O)c(O)c1C/C=C(\C)CC/C=C(\C)CC/C=C(\C)CCC=C(C)C |  |  |  | 1.55 µM |  | 0.341 µM |  | 0.886 µM |  | 1.89 µM |  | 2.8 µM |  | 1.21 µM |  | 2.6 µM |  | 2.26 µM |  | 2.9 µM
Cc1ccc(NC(=O)/C(=N\Nc2ccc([N+](=O)[O-])cc2[N+](=O)[O-])C2C(=O)NC(=O)NC2=O)cc1 |  | > 100 µM |  | > 100 µM |  | > 100 µM |  | > 100 µM |  | > 100 µM |  | > 100 µM |  | > 100 µM |  | > 100 µM |  | > 100 µM |  | 
O=NNc1nc(-c2cccnc2)nc2ccccc12 |  | > 100 µM |  | > 100 µM |  | > 100 µM |  |  |  | > 100 µM |  | > 100 µM |  | > 100 µM |  | > 100 µM |  | > 100 µM |  | 
CC1=C(O)C(=O)C2C(=O)C1C(C)C2c1ccc(Cl)cc1 (configuration not stated) |  | > 100 µM |  | > 100 µM |  | > 100 µM |  | > 100 µM |  | > 100 µM |  | > 100 µM |  | > 100 µM |  | > 100 µM |  |  |  | > 100 µM
CCCCCCCCCCCCCCCC(=O)OCC1OC(n2c(O)c(N=NC(N)=S)c3ccc([N+](=O)[O-])cc32)C(OC(C)=O)C1OC(C)=O (configuration not stated) |  |  |  | > 100 µM |  | > 100 µM |  | > 100 µM |  | > 100 µM |  | > 100 µM |  | > 100 µM |  | > 100 µM |  | > 100 µM |  | > 100 µM
CC(C)C1CC(O)O[C@@H]([C@@H](C)[C@H]2CC(=O)[C@@H]3[C@@H]4[C@@H](O)[C@H](O)[C@H]5[C@@H](O)[C@H](O)CC[C@]5(C)[C@H]4CC[C@]23C)C1 (some centres not stated) |  |  |  | > 100 µM |  | > 100 µM |  | 57.1 µM |  |  |  | > 100 µM |  | > 100 µM |  | > 100 µM |  | > 100 µM |  | > 100 µM
CCCCCCCCCc1cc(=O)c2ccc(O)cc2o1 |  |  |  | > 100 µM |  | > 100 µM |  | 64.6 µM |  | > 100 µM |  | > 100 µM |  | > 100 µM |  | 91.3 µM |  | > 100 µM |  | > 100 µM
CC(C)CC1=[N+]=C(NC#N)N=C(CCC(=O)Nc2ccccc2[N+](=O)[O-])C1 |  | > 100 µM |  | > 100 µM |  | > 100 µM |  | > 100 µM |  | > 100 µM |  | > 100 µM |  | > 100 µM |  | > 100 µM |  | > 100 µM |  | 
CCCCCCCCCCCC[n+]1ccc(CCCCCCCCC)cc1 | 1.02 µM | 2.37 µM |  |  |  |  | 0.0968 µM | 0.944 µM |  |  |  |  |  |  | 1.35 µM | 2.76 µM |  |  |  | 
NC(=O)N1N=C2c3ccccc3SC[C@H]2[C@@H]1c1ccccc1 |  | 76.9 µM |  | > 100 µM |  | 43.4 µM |  |  |  | 60.2 µM |  | > 100 µM |  | > 100 µM |  | 92.6 µM |  | 54 µM |  | 
Fc1ccc2[nH]c3c(NCCCN4CCOCC4)ncnc3c2c1 | 28.1 µM | > 100 µM |  |  | 20.7 µM | 42.4 µM | 13.5 µM | 84.1 µM | 50.5 µM | > 100 µM | > 100 µM | > 100 µM | 40.8 µM | > 100 µM | 66.4 µM | > 100 µM |  |  | 52 µM | > 100 µM
O=C(CSC(=S)N1CCOCC1)Nc1nc2c(s1)CCCC2 |  | > 100 µM |  | > 100 µM |  | > 100 µM |  | 96.2 µM |  | > 100 µM |  |  |  |  |  | > 100 µM |  | > 100 µM |  | > 100 µM
CCOC(=O)C(=O)Nc1c(C)cccc1C |  |  |  | > 100 µM |  | > 100 µM |  | > 100 µM |  | > 100 µM |  | > 100 µM |  | > 100 µM |  | > 100 µM |  | > 100 µM |  | > 100 µM
O=C1/C(=C/c2ccc(O)cc2)COc2ccc(-c3ccccc3)cc21 | 11.5 µM | 23.8 µM | 13.2 µM | 49.6 µM | 10.6 µM | 33.9 µM | 7.63 µM | 31 µM | 17.8 µM | 33.8 µM | 15.7 µM | 37.3 µM | 2.8 µM | 8.06 µM | 2.98 µM | 11.9 µM |  |  | 16.8 µM | 39 µM

SMILES | GI50 (A498 renal) | TGI (A498 renal) | GI50 (A549 NSCLC) | TGI (A549 NSCLC) | GI50 (COLO 205 colon) | TGI (COLO 205 colon) | GI50 (HOP-92 NSCLC) | TGI (HOP-92 NSCLC) | GI50 (OVCAR-5 ovarian) | TGI (OVCAR-5 ovarian) | GI50 (SNB-19 CNS) | TGI (SNB-19 CNS) | GI50 (SW-620 colon) | TGI (SW-620 colon) | GI50 (TK-10 renal) | TGI (TK-10 renal) | GI50 (UACC-257 melanoma) | TGI (UACC-257 melanoma) | GI50 (SK-MEL-2 melanoma) | TGI (SK-MEL-2 melanoma)
COC(=O)c1csc(-c2nc(CCNC(=O)OC(C)(C)C)sc2Br)n1 |  | > 100 µM |  | > 100 µM |  | > 100 µM |  |  |  | > 100 µM |  | > 100 µM |  | > 100 µM |  | > 100 µM |  | > 100 µM |  | 
COc1cc(CNc2ccc(C(C)C)cc2)cc(OC)c1OC |  | 67.7 µM |  | 34.2 µM |  |  |  | 50.2 µM |  | 69.9 µM |  | 99.1 µM |  |  |  | > 100 µM |  | 61.7 µM |  | 32.9 µM
O=C(O)c1cc(=O)c2[nH]c3ccccc3c2s1 |  |  |  | > 100 µM |  | > 100 µM |  | > 100 µM |  | > 100 µM |  | > 100 µM |  | > 100 µM |  | > 100 µM |  | > 100 µM |  | > 100 µM
CC(=O)OC1c2ccccc2CCCCCCC12OCCO2 (configuration not stated) |  | > 100 µM |  | > 100 µM |  | > 100 µM |  |  |  | > 100 µM |  | > 100 µM |  | > 100 µM |  | > 100 µM |  | > 100 µM |  | > 100 µM
Nc1cc(N)c(N)cc1N | 1.6 µM | 4.67 µM | 2.06 µM | 4.51 µM | 1.81 µM | 3.43 µM | 12 µM | 27.2 µM | 2.18 µM | 4.99 µM | 3.42 µM | 14.3 µM | 3.09 µM | 12.1 µM | 3.68 µM | 14.5 µM | 1.55 µM | 3.05 µM |  | 
COc1ccc(C2S/C(=C\c3ccc(O)cc3)C(=O)N2NC(=O)Cc2ccccc2)cc1 (configuration not stated) |  | > 100 µM |  | > 100 µM |  | > 100 µM |  | > 100 µM |  | > 100 µM |  |  |  | > 100 µM |  | > 100 µM |  | > 100 µM |  | > 100 µM
COc1ccc(C(C#N)NNc2nc(C)cc(=O)[nH]2)cc1OC (configuration not stated) |  |  |  | > 100 µM |  | > 100 µM |  | > 100 µM |  | > 100 µM |  |  |  | > 100 µM |  | > 100 µM |  | > 100 µM |  | > 100 µM
O=C1CC[C@@H](S(=O)(=O)c2ccccc2)[C@@H](/C=C/c2ccccc2)O1 |  | > 100 µM |  | > 100 µM |  | > 100 µM |  |  |  | > 100 µM |  | > 100 µM |  | > 100 µM |  | > 100 µM |  | > 100 µM |  | 
CC/C=C\C/C=C\C/C=C\CCCCCCCC(=O)OCC |  | > 100 µM |  | > 100 µM |  | > 100 µM |  | > 100 µM |  | > 100 µM |  |  |  | > 100 µM |  | > 100 µM |  | > 100 µM |  | > 100 µM
COc1ccc(O)c(C#N)c1C#N |  | > 100 µM |  | > 100 µM |  | > 100 µM |  |  |  | > 100 µM |  | > 100 µM |  | > 100 µM |  | > 100 µM |  | > 100 µM |  | > 100 µM
CC(C)NC(=O)OCCS(=O)c1c(Cl)c(Cl)nn1C (configuration not stated) |  | > 100 µM |  | > 100 µM |  | 44 µM |  |  |  | > 100 µM |  | > 100 µM |  | > 100 µM |  | > 100 µM |  |  |  | > 100 µM
CN(CCOc1ccc(C#N)cc1)CCOc1ccc(C#N)cc1 | 14.8 µM | > 100 µM | > 100 µM | > 100 µM | > 100 µM | > 100 µM |  |  | > 100 µM | > 100 µM | > 100 µM | > 100 µM | 57.5 µM | > 100 µM | 28.7 µM | > 100 µM | 28.9 µM | > 100 µM |  | 
CCOP(=O)(OCC)C(NC(c1ccccc1)c1ccccc1)c1cccc2ccccc12 (configuration not stated) |  |  | 4.28 µM | > 100 µM |  |  | 11.7 µM | 28.4 µM | 14.3 µM | 34.4 µM |  |  | 22.2 µM | 57.6 µM | 10.3 µM | 29.4 µM | 3.22 µM | 13.9 µM | 27.7 µM | > 100 µM
CC(=O)n1c2ccccc2c2nc3nc(Oc4ccc(C)cc4)c4ccccc4c3cc21 |  |  |  | > 100 µM |  | > 100 µM |  |  |  | > 100 µM |  | > 100 µM |  | > 100 µM |  |  |  | > 100 µM |  | > 100 µM
CSc1nc2c(nc(N)n2C2OCC(O)C(O)C2O)c(=O)n1C (configuration not stated) |  | > 100 µM |  | > 100 µM |  | > 100 µM |  | > 100 µM |  |  |  | > 100 µM |  | > 100 µM |  | > 100 µM |  | > 100 µM |  | 
